This is an account of results in the RepoRT retention time repository (doi:10.1038/s41586-021-03707-9).

Series [1] is described as follows: RP, Waters ACQUITY UPLC HSS C18, 100 × 2.1 mm, 1.7 µm, 40 °C, 0.35 mL/min, estimated dead time 0.63 min; A: water + 0.1% formic acid; B: methanol + 0.1% formic acid; gradient (min/%B) 0/0.5 4/70 4.5/98 5.4/98. As to conditions: stereoisomer not certain.
A short description of series [2]: Waters ACQUITY UPLC BEH C18, 100 × 2.1 mm, 1.7 µm, 40 °C, 0.28 mL/min, estimated dead time 0.63 min; A: water + 6.5 mM ammonium hydroxide; B: methanol + 6.5 mM ammonium hydroxide; gradient (min/%B) 0/0.5 4/70 4.5/98 5.4/98. As to conditions: stereoisomer not certain.

For the molecule `CC(=O)NC(CCCCN)C(=O)O` (configuration not stated), the LC retention time is 0.903 min in series [1] and 0.916 min in series [2].

In the case of `Cc1c[nH]c(=O)[nH]c1=O`, the values for the LC retention time in series [1] and in series [2] were 1.88 min and 1.94 min, respectively.

As to `CNC(=O)c1cccnc1`, the LC retention time in series [1] is 1.82 min; in series [2], 2.54 min.

In the case of `C[n+]1cccc(C(=O)[O-])c1`, the results for the LC retention time in series [1] and in series [2] were 0.822 min and 0.848 min, respectively.

For `Nc1ccccc1C(=O)CC(N)C(=O)O` (configuration not stated), the figures for the LC retention time in series [1] and in series [2] were 2.2 min and 2.21 min, respectively.

For the molecule `NC(=O)c1cccnc1`, the LC retention time in series [1] is 1.4 min; in series [2] it was 2.14 min.

Regarding `O=C(O)c1cccnc1`, the LC retention time in series [1] is 1.27 min; in series [2], 1.25 min.

Turning to `O=C1NS(=O)(=O)c2ccccc21`, the LC retention time in series [1] is 2.66 min; in series [2], 2.3 min.

For `CC(C)=CCNc1ncnc2nc[nH]c12`, the figures for the LC retention time in series [1] and in series [2] were 3.94 min and 4.91 min, respectively.

Regarding `Cn1c(=O)c2c([nH]c(=O)n2C)n(C)c1=O`, the results for the LC retention time in series [1] and in series [2] were 3 min and 2.29 min, respectively.

In the case of `CC1NC(=O)NC1CCCCCC(=O)O` (configuration not stated), the LC retention time in series [1] was 3.88 min; in series [2], 2.67 min.

Turning to `O=C(O)c1ccc2ccccc2n1`, the values for the LC retention time in series [1] and in series [2] were 3.21 min and 3.07 min, respectively.

Regarding `NC(Cc1ccc([N+](=O)[O-])cc1)C(=O)O` (configuration not stated), the LC retention time in series [1] was 2.5 min; in series [2], 2.58 min.

`Cc1cc2nc[nH]c2cc1C`: the LC retention time in series [1] was 3.34 min; in series [2], 4.93 min.

For the molecule `CNC(=C[N+](=O)[O-])NCCSCc1ccc(CN(C)C)o1`, the LC retention time was 2.32 min in series [1] and 4.28 min in series [2].

As for `CC12CCC(=O)C=C1CCC1C2C(=O)CC2(C)C1CCC2(O)C(=O)CO` (configuration not stated), the values for the LC retention time in series [1] and in series [2] were 4.87 min and 5.05 min, respectively.

`Nc1ccccc1C(=O)O`: the LC retention time in series [1] is 3.65 min; in series [2], 1.76 min.

For the molecule `NC(=O)NCCCC(N)C(=O)O` (configuration not stated), the values for the LC retention time in series [1] and in series [2] were 0.766 min and 0.796 min, respectively.

Turning to `Nc1nc2nccnc2c(=O)[nH]1`, the LC retention time is 1.73 min in series [1] and 1.57 min in series [2].

In the case of `NC(=O)c1ccccc1O`, the LC retention time was 3.56 min in series [1] and 3.12 min in series [2].

Regarding `O=C(O)CCCCCCC(=O)NCC(=O)O`, the results for the LC retention time in series [1] and in series [2] were 3.35 min and 0.865 min, respectively.

`NC(N)=NCC(=O)O`: the LC retention time in series [1] is 0.759 min; in series [2] it was 0.801 min.

Turning to `CC(=O)NCCc1c[nH]c2ccc(O)cc12`, the LC retention time is 3.01 min in series [1] and 3.09 min in series [2].

Regarding `CSc1ncnc2nc[nH]c12`, the LC retention time was 3.43 min in series [1] and 3.28 min in series [2].

With `OCCc1c[nH]c2ccccc12`, the LC retention time was 4.22 min in series [1] and 4.36 min in series [2].

As to `O=C(O)c1ccc(=O)[nH]c1`, the figures for the LC retention time in series [1] and in series [2] were 1.96 min and 0.819 min, respectively.

Take `CNCCc1c[nH]c2ccccc12`: the figures for the LC retention time in series [1] and in series [2] were 2.87 min and 3.84 min, respectively.

In the case of `CC(NC(=O)Cc1c[nH]c2ccccc12)C(=O)O` (configuration not stated), the LC retention time in series [1] was 4 min; in series [2], 3.24 min.

As for `CCN1CCCC1CNC(=O)c1cc(S(N)(=O)=O)ccc1OC` (configuration not stated), the LC retention time in series [1] is 2.24 min; in series [2], 4.29 min.

Take `COc1cc(C(O)CN)ccc1O` (configuration not stated): the LC retention time is 1.16 min in series [1] and 1.88 min in series [2].

Consider `NC(=O)CCCCC1CCSS1` (configuration not stated), for which the LC retention time was 4.6 min in series [1] and 4.75 min in series [2].

Regarding `CN1CC(=O)NC1=N`, the results for the LC retention time in series [1] and in series [2] were 0.77 min and 0.861 min, respectively.

For the molecule `CN(C)CCc1ccc(O)cc1`, the figures for the LC retention time in series [1] and in series [2] were 1.82 min and 3.89 min, respectively.

On to `O=C(O)c1cc(=O)c2ccccc2[nH]1`, for which the LC retention time is 3.18 min in series [1] and 2.57 min in series [2].

Regarding `O=C(O)C(O)Cc1ccc(O)cc1` (configuration not stated), the LC retention time in series [1] was 2.87 min; in series [2] it was 1.51 min.

Consider `CC(=O)NC(Cc1ccccc1)C(=O)O` (configuration not stated), for which the results for the LC retention time in series [1] and in series [2] were 3.99 min and 2.99 min, respectively.

Consider `CC(=O)NCCCC(=O)O`, for which the LC retention time in series [1] is 1.95 min; in series [2], 0.923 min.

As for `O=C(O)CCCc1c[nH]c2ccccc12`, the results for the LC retention time in series [1] and in series [2] were 4.92 min and 3.66 min, respectively.

Take `CC1CNC(=O)NC1=O` (configuration not stated): the LC retention time in series [1] is 1.87 min; in series [2], 1.94 min.

On to `CSCCC(NC=O)C(=O)O` (configuration not stated), for which the LC retention time in series [1] is 2.78 min; in series [2], 1.75 min.

Consider `O=C(O)c1ccc(CO)o1`, for which the LC retention time is 2.36 min in series [1] and 0.87 min in series [2].

For the molecule `Cc1ccccc1C(=O)NCC(=O)O`, the LC retention time in series [1] is 3.56 min; in series [2], 2.74 min.

In the case of `Cc1ncc(CO)c(C=O)c1O`, the LC retention time in series [1] was 0.85 min; in series [2], 1.77 min.

In the case of `CCOC(=O)Cc1c[nH]c2ccccc12`, the LC retention time in series [1] is 5.21 min; in series [2] it was 5.38 min.

As to `COc1cc(C(=O)O)ccc1O`, the values for the LC retention time in series [1] and in series [2] were 3.33 min and 0.869 min, respectively.

With `O=C(O)CCc1c[nH]c2ccccc12`, the LC retention time in series [1] was 4.63 min; in series [2], 3.13 min.

Take `CC(=O)NC(C)C(=O)O` (configuration not stated): the LC retention time was 1.77 min in series [1] and 0.918 min in series [2].

`CCCOC(=O)c1ccc(O)cc1`: the LC retention time was 5.25 min in series [1] and 5.27 min in series [2].

On to `CCC(C)C(=O)NCC(=O)O` (configuration not stated), for which the LC retention time in series [1] was 2.97 min; in series [2], 2.17 min.

For `O=C1OC(C(O)CO)C(O)C1O` (configuration not stated), the LC retention time in series [1] was 0.804 min; in series [2], 0.822 min.

Turning to `CC(=O)NCC(=O)O`, the LC retention time is 1.13 min in series [1] and 0.78 min in series [2].

In the case of `NC(=O)c1ncn(C2OC(CO)C(O)C2O)c1N` (configuration not stated), the LC retention time in series [1] is 1.58 min; in series [2], 1.77 min.

As for `Cc1ccc(O)c(O)c1`, the values for the LC retention time in series [1] and in series [2] were 3.49 min and 3.87 min, respectively.

Take `O=C(O)c1ccnc2ccccc12`: the LC retention time in series [1] was 1.91 min; in series [2], 2.09 min.

Take `CC=C(C)C(=O)NCC(=O)O`: the LC retention time was 2.9 min in series [1] and 2.16 min in series [2].

With `CCC(NC(=O)CCC(N)C(=O)O)C(=O)NCC(=O)O` (configuration not stated), the results for the LC retention time in series [1] and in series [2] were 1.58 min and 0.928 min, respectively.

As to `CCOC(=O)c1ccc(N)cc1`, the LC retention time was 4.4 min in series [1] and 4.61 min in series [2].

On to `c1ncc2[nH]cnc2n1`, for which the LC retention time in series [1] is 1.69 min; in series [2], 1.85 min.

`Nc1cc(C(=O)O)ccc1O`: the LC retention time in series [1] is 1.25 min; in series [2], 0.796 min.

Consider `O=C(O)CNC(=O)CCc1ccccc1`, for which the LC retention time in series [1] is 2.34 min; in series [2] it was 3.32 min.

Take `O=C(O)CNC(=O)c1cccnc1`: the figures for the LC retention time in series [1] and in series [2] were 1.74 min and 1.67 min, respectively.
